Assay results reported in patent US9238639B2, “Aromatic ring compound” (TAKEDA PHARMACEUTICAL COMPANY LIMITED, priority 2012, dated 2016).

The molecules below were run against T1, human GOAT (Homo sapiens, UniProt Q96T53) (assay: GOAT enzyme activity measurement by HTRF method (human GOAT-expressing microsome fraction)). Conditions: 10 μM compound; human GOAT-expressing Sf9 microsome fraction; octanoyl-CoA and Ghrelin-biotin substrates; 0% control without compound, 100% control without enzyme.
T1 construct: made in house; host or cells: Sf9 insect cells (BacToBac baculovirus, pFastBac1 vector); microsome fraction
T1 sequence (Q96T53 1-435): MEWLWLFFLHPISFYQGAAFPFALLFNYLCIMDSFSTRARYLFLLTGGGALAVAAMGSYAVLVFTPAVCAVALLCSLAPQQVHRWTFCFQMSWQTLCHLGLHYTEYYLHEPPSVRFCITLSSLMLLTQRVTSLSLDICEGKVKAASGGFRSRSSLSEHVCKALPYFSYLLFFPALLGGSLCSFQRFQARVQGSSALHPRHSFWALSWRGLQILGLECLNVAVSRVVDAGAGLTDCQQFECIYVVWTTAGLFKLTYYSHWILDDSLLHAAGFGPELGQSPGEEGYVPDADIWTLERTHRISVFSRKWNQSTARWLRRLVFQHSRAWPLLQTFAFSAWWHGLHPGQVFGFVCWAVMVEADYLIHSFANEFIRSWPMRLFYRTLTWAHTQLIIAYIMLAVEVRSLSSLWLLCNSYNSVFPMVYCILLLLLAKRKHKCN
Format: biochemical
Experimental: Human GOAT (Accession NO: EU518495) cDNA was amplified by PCR including reaction of (1) 98° C., 1 min, (2) 35 repeats of 98° C., 10 sec·65° C., 15 sec·72° C., 80 sec, and (3) 72° C., 5 min, using human stomach cDNA library (Takara Bio) as a template and Pyrobest DNA Polymerase (Takara Bio). The amplified fragment was treated with restriction enzymes, inserted into Stu I/Not I sites of pFastBacl (Invitrogen) by using Ligation High (TOYOBO), and transfected into ECOS JM109 (Nippon Gene) to construct pFB/hGOAT.
Production of Baculovirus and Preparation of Insect Cell Microsome Fraction
For preparation of baculovirus from pFB/hGOAT, BacToBac baculovirus expression system (Invitrogen) was used. The virus titer was measured by Real-Time PCR using SYBR Green (Takara Bio). Sf9 cells were infected with the obtained baculovirus at Multiplicity of Infection (MOI)=0.2, and cultured for 70 hr. The Sf9 cells were recovered, suspended in a suspension buffer (TBS (0.3 M NaCl), 1 mM DTT, 1 mM EDTA, Complete (Roche) (1 tablet/50 mL)), and the cells were disrupted twice on ice at 20000 rpm, 30 sec using a polytron homogenizer. The cell disruption solution was centrifuged at 1000 rpm for 10 min at 4° C., the supernatant was further ultracentrifuged at 40000 rpm for 30 min at 4° C. and the precipitate was recovered. The obtained precipitate was suspended in the suspension buffer used above to give a human GOAT-expressing microsome fraction. The protein level was measured using BCA Protein assay Reagent (PIERCE).
Enzyme Activity Measurement by HTRF Method
A compound solution (2 μL) diluted with an assay buffer containing 50 mM Tris-HCl (pH 7.5), 0.5% TWEEN20, and Complete to 15% DMSO and 90 μg/mL human GOAT-expressing microsome fraction (2 μL) were incubated at room temperature for 20 min, after which a substrate mixed solution (2 μL) containing 30 μM octanoyl-CoA (CHEM-IMPLEX) and 3 μM Ghrelin-biotin ([…]epsilon aminocaproic acid-biotin (Greiner Coutom synthesis)) was added to 384 white small volume plate (Greiner). After reaction for 20 min, 2 μL of citrate buffer (pH3) (mixed solution of 0.1 M citric acid (39.8 mL) and 0.2 M Na2HPO4 (10.2 mL)), 2 μL of 25 nM anti-active ghrelin antibody (produced in mouse), 5 μL of Eu(K)-Anti Mouse IgG Pab (Cis Bio) 100-fold diluted with HTRF detection buffer (Cis Bio) and 5 μL of streptavidin-Xlent (Cis Bio) 66.6-fold diluted with HTRF detection buffer (Cis Bio) were added. After incubation at room temperature for 1 hr or longer, the fluorescence values at 620 nm and 665 nm were measured by Envision (PerkinElmer). The data was calculated [(665 nm signal/620 nm signal)×10^4], and the inhibitory activity against human GOAT was shown by the data where 0% control was without compound, and 100% control was without enzyme.

| inhibition at 10 µM [%] | SMILES |
| --- | --- |
| 73 | CC(=O)NCCc1coc2cc(OCc3ccc(Cl)cc3Cl)ccc12 [Example 196, N-(2-(6-(2,4-Dichlorobenzyloxy)-1-benzofuran-3-yl)ethyl)acetamide] |
| 69 | CC(=O)NCC[C@@H]1COc2cc(OCc3ccc(Cl)cc3Cl)ccc21 [Example 197, N-(2-((3S)-6-((2,4-Dichlorobenzyl)oxy)-2,3-dihydro-1-benzofuran-3-yl)ethyl)acetamide] |
| 59 | CCC(=O)NCC[C@@H]1COc2cc(OCc3ccc(Cl)cc3Cl)ccc21 [Example 198, N-(2-((3S)-6-((2,4-Dichlorobenzyl)oxy)-2,3-dihydro-1-benzofuran-3-yl)ethyl)propanamide] |
| 93 | O=C(O)C[C@@H]1COc2cc(OCc3ccc(Cl)cc3Cl)ccc21 [Example 262, ((3S)-6-((2,4-Dichlorobenzyl)oxy)-2,3-dihydro-1-benzofuran-3-yl)acetic acid] |
| 86 | O=C(O)C[C@H]1COc2cc(OCc3ccc(Cl)cc3Cl)ccc21 [Example 263, ((3R)-6-((2,4-Dichlorobenzyl)oxy)-2,3-dihydro-1-benzofuran-3-yl)acetic acid] |
| 81 | O=C(O)C1(CO)COc2cc(OCc3ccc(Cl)cc3Cl)ccc21 (centres unmarked) [Example 279, 6-((2,4-Dichlorobenzyl)oxy)-3-(hydroxymethyl)-2,3-dihydro-1-benzofuran-3-carboxylic acid] |
| 85 | COCC1(C(=O)O)COc2cc(OCc3ccc(Cl)cc3Cl)ccc21 (centres unmarked) [Example 281, 6-((2,4-Dichlorobenzyl)oxy)-3-(methoxymethyl)-2,3-dihydro-1-benzofuran-3-carboxylic acid] |
| 94.8 | Cc1ccc(COc2cc(C)c3c(c2C)OCC3CC(=O)O)c(C)n1 (centres unmarked) [Example 289, (6-((2,6-Dimethylpyridin-3-yl)methoxy)-4,7-dimethyl-2,3-dihydro-1-benzofuran-3-yl)acetic acid] |
| 96.2 | Cc1cc(OCc2ccc(Cl)cc2Cl)c(C)c2c1C(CC(=O)O)CO2 (centres unmarked) [Example 291, (6-((2,4-Dichlorobenzyl)oxy)-4,7-dimethyl-2,3-dihydro-1-benzofuran-3-yl)acetic acid] |
| 99.9 | COC(=O)Cc1csc2cc(OCc3cc(C(F)(F)F)nn3C)cc(F)c12 [Example 302, Methyl (4-fluoro-6-((1-methyl-3-(trifluoromethyl)-1H-pyrazol-5-yl)methoxy)-1-benzothiophen-3-yl)acetate] |
| 104 | Cn1nc(C(F)(F)F)cc1COc1cc(F)c2c(CC(=O)O)csc2c1 [Example 303, (4-Fluoro-6-((1-methyl-3-(trifluoromethyl)-1H-pyrazol-5-yl)methoxy)-1-benzothiophen-3-yl)acetic acid] |
| 94.9 | COC(=O)Cc1csc2cc(OCc3ccc(C(F)(F)F)nc3C)cc(F)c12 [Example 304, Methyl (4-fluoro-6-((2-methyl-6-(trifluoromethyl)pyridin-3-yl)methoxy)-1-benzothiophen-3-yl)acetate] |
| 102 | Cc1nc(C(F)(F)F)ccc1COc1cc(F)c2c(CC(=O)O)csc2c1 [Example 305, (4-Fluoro-6-((2-methyl-6-(trifluoromethyl)pyridin-3-yl)methoxy)-1-benzothiophen-3-yl)acetic acid] |
| 99.5 | COC(=O)Cc1c(C)sc2cc(OCc3cc(C(F)(F)F)nn3C)cc(Cl)c12 [Example 306, Methyl (4-chloro-2-methyl-6-((1-methyl-3-(trifluoromethyl)-1H-pyrazol-5-yl)methoxy)-1-benzothiophen-3-yl)acetate] |
| 106 | Cc1sc2cc(OCc3cc(C(F)(F)F)nn3C)cc(Cl)c2c1CC(=O)O [Example 307, (4-Chloro-2-methyl-6-((1-methyl-3-(trifluoromethyl)-1H-pyrazol-5-yl)methoxy)-1-benzothiophen-3-yl)acetic acid] |
| 51.5 | COC(=O)Cc1c(C)sc2cc(OCc3ccc(C(F)(F)F)nc3C)cc(Cl)c12 [Example 308, Methyl (4-chloro-2-methyl-6-((2-methyl-6-(trifluoromethyl)pyridin-3-yl)methoxy)-1-benzothiophen-3-yl)acetate] |
| 103 | Cc1nc(C(F)(F)F)ccc1COc1cc(Cl)c2c(CC(=O)O)c(C)sc2c1 [Example 309, (4-Chloro-2-methyl-6-((2-methyl-6-(trifluoromethyl)pyridin-3-yl)methoxy)-1-benzothiophen-3-yl)acetic acid] |
